The test system of assay [1] is Rat Aortic Smooth Muscle Cells (RASMC). Briefly: RASMC cell proliferation assay (WST-1). It is filed as cell-based. The following applies: Rattus norvegicus, read-out: EC50 for inhibition of RASMC proliferation. Here is the method: EC50 values were calculated using WinNonLin 5.0.1 using the inhibitory effect sigmoid Emax model.
(Tetrazolium dyes change colour on reduction, which living cells bring about.)

Assay [2] relates to Ang II induced hypertension. The experiment in a line: Angiotensin II model, blood pressure. The assay is classed as in vivo, ovariectomized C57/BJ6 and ERβKO mice. Further details: Systolic pressure / Diastolic pressure: unit: mmHg. The following applies: for Diastolic pressure / Systolic pressure: Ang II. As for the experimental part: Thirty, ten week old female ovariectomized C57/BJ6 mice, were obtained from Harlan/Sprague Dawley and were housed in 12 hour on/off lighting and fed rodent chow devoid of soy or most plant products. Ovariectomized ERβ gene-deleted (ERβKO or ERβ-KO) mice were obtained from Ken Korach, NIEHS. The ERβ mice were originally created by Drs. Smithies, Gustafsson, and colleagues. All mice were identically housed and fed the same chow.
(§1) This pellet is well documented to produce physiological levels of E2 in the serum of mice.
Blood pressure was measured 4 times during the 21-day period, using the CODA non-invasive blood pressure measuring system (Kent Scientific, Torrington, Conn.). Measurements were done by volume pressure recordings of the tail.

The subject of the next assay is ARPE-19 cells. The experiment in a line: Fluorescent detection of intracellular ROS. The assay is classed as cell-based, Human. The following applies: 100 nM; 150 μM tBH. An excerpt: Cells were allowed to adhere overnight. […] Removed and washed cells once with HBSS. […] Each drug concentration was done in triplicates.
For assay [3], the system named is Ang II induced cardiac fibrosis. Briefly: Angiotensin II model, cardiac fibrosis. The assay is classed as in vivo, ovariectomized C57/BJ6 and ERβKO mice. As for the experimental part: (§2) Thirty, ten week old female ovariectomized C57/BJ6 mice, were obtained from Harlan/Sprague Dawley and were housed in 12 hour on/off lighting and fed rodent chow devoid of soy or most plant products. Ovariectomized ERβKO mice were obtained from Ken Korach, NIEHS. The ERβ mice were originally created by Drs. Smithies, Gustafsson, and colleagues. All mice were identically housed and fed the same chow.
as §1
Left ventricular tissues were fixed in 4% paraformaldehyde solution. Paraffin-embedded tissue sections (5 um) were stained with Masson's trichrome for the presence of interstitial collagen fiber accumulation indicative of cardiac fibrosis. The ratio of interstitial fibrosis to the total left ventricular area was calculated from 10 randomly selected microscopic fields from each of five sections per heart using NIH imageJ analysis software (n=5 mice per condition). Further quantification of collagen deposition was made by ventricular content of hydroxyproline, a breakdown product of collagen, determined by a modified method of Bergman and Loxley (19). The ventricular tissues were homogenized and hydrolyzed in 6 N HCl at 110° C. for 24 h in a sealed reaction vial. The sample was dried and the residue re-suspended in sterile water. 0.5 ml of chloramine T was added for 5 min, then Ehrlich's reagent (3 ml) was added and the mixture left for 18 h at room temperature. The intensity of the red coloration that developed was measured by a spectrophotometer at 558 nm.

Another assay deals with ER-β (Rattus norvegicus (Rat), UniProt Q62986). The experiment in a line: ER-β transactivation (ERE-LUC) in COS or 293 cells. The assay is classed as cell-based. The following applies: dose 1 nM.
Chain of ER-β (Q62986 whole entry): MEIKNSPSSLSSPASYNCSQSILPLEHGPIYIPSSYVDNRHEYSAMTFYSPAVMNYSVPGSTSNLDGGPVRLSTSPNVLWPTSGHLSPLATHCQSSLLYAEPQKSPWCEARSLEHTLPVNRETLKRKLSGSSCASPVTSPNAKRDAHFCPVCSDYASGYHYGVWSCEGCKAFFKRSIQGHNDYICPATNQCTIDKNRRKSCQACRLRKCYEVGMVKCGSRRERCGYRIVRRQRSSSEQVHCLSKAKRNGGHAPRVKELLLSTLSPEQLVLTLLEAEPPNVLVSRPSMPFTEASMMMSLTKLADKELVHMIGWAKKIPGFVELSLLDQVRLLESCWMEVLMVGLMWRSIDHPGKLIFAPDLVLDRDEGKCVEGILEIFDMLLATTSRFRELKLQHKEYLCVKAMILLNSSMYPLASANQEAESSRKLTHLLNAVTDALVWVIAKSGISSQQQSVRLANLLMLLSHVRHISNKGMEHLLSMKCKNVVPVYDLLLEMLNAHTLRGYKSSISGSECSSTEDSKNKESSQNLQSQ
For assay [4], the system named is Ang II induced left ventricular hypertrophy. The experiment in a line: Angiotensin II model, cardiac hypertrophy. As to conditions: 21 days. It is filed as in vivo, ovariectomized C57/BJ6 and ERβKO mice. Here is the method:
as §2, §1
At inception and after 21 days, the mice were weighed. Blood pressure was measured 4 times during the 21-day period, using the CODA non-invasive blood pressure measuring system. At 21 days the hearts were stopped in diastole by CdCl2 administration. The hearts were removed and weighed and the ratio of heart per total body weight was determined. Next, the hearts were dissected and the left ventricles were weighed and the ratio of left ventricle per total body weight was determined. […] For comparison ERβ gene-deleted mice were subjected to the same conditions of Ang II±E2 or the 12u compound. For histology, the hearts were and sectioned, and stained with hematoxylin and eosin, or Masson stain (for collagen)

A further assay relates to SHP promoter. Briefly: SHP promoter-luciferase assay in HEK-293 cells. The assay is classed as cell-based. As for the experimental part: FIG. 12 depicts the effect of ER-β ligand on PPAR-γ function through ligand binding domain (LBD). (A). HEK-293 cells were transfected with 0.25 μg PPRE-LUC, 5 ng CMV-renilla LUC and the indicated receptors (PPAR-γ and ER-β for the left panel and PPAR-α and ER-β for the right panel). The cells were treated 24 hrs after transfection with the indicated ligands and harvested 48 hrs after transfection and firefly luciferase activity was measured and normalized to renilla luciferase. (B). H475 in ER-β LBD is important for its function. H475 in ER-β LBD was mutated to alanine (A) using a site directed mutagenesis kit. Transactivation assay was performed as described in panel A in HEK-293 cells with a titration of ER-β ligands in wild type (WT) or ER-β H475A. (C). […] HEK-293 cells were transfected with 0.25 μg PPRE-LUC, 5 ng CMV-renilla LUC and 50 ng of the indicated receptors (PPAR-γ or PPAR-γ and wild type ER-β or PPAR-γ and ER-β H475A). The cells were treated 24 hrs after transfection with the indicated ligands and harvested 48 hrs after transfection and firefly luciferase activity was measured and normalized to renilla luciferase. (D). […] HepG2 cells were transfected with 0.25 μg PPRE-LUC, 5 ng CMV-renilla LUC, 0.5 μg PGC-1 or vector backbone and 100 ng of the indicated receptors (PPAR-γ or PPAR-γ and wild type ER-β or PPAR-γ and ER-β H475A for top panels and PPAR-α or PPAR-α and ER-β for bottom panel). The cells were treated 24 hrs after transfection with the indicated ligands and harvested 48 hrs after transfection and firefly luciferase activity was measured and normalized to renilla luciferase. (E). SHP-1 is an ER-β specific target gene. HEK-293 cells were transfected with 0.25 μg SHP-LUC, 5 ng CMV-renilla LUC and 50 ng of the indicated receptors (FXR and ER-α for the left panel and FXR and ER-β for the right panel). The cells were treated 24 hrs after transfection with the indicated ligands and harvested 48 hrs after transfection and firefly luciferase activity was measured and normalized to renilla luciferase. PPAR—peroxisome proliferator and activated receptor; ER—estrogen receptor; H—histidine; A—alanine; RLU—relative luciferase units; Tro—troglitazone; PGC-1—PPAR-γ coactivator; SHP—small heterodimer partner; FXR—farsenoid X receptor.
Human estrogen receptors (ER-α and ER-β) were cloned from prostate cDNA into a pCR3.1 plasmid vector backbone. PGC-1 was cloned into mammalian two hybrid vector pACT. ER-β H475 was mutated to alanine using site-directed mutagenesis. Sequencing was performed to determine the absence of any non specific mutations. SHP promoter (−572 to +10) (26) was cloned into pGL3 basic LUC reporter vector and human FXR was cloned into pCR3.1. […]

Consider `C[C@]12CC[C@@H]3c4ccc(O)cc4CC[C@H]3[C@@H]1CC[C@@H]2O` [Estradiol, reference compound], for which the EC50 in assay [1] stood at 36.4 µM. For the same compound, the “Ang II induced hypertension, diastolic pressure” value in assay [2] (ERβ-KO mice, 21 days) is on record as “unchanged”. Further, in assay [2] (ERβ-KO mice, 21 days), the “Ang II induced hypertension, systolic pressure” value is “mildly reduced”. The Diastolic pressure in assay [2] (ERβKO, 7 days) is reported as 95; in assay [2] (ERβKO, 14 days), 98; in assay [2] (ERβKO, 21 days), 96; in assay [2] (ERβKO, time 0), 86; in assay [2] (WT, 7 days), 82; in assay [2] (WT, 14 days), 86. The Diastolic pressure is reported as 88 in assay [2] (WT, 21 days) and 85 in assay [2] (WT, time 0). The Systolic pressure in assay [2] (ERβKO, 7 days) is reported as 149; in assay [2] (ERβKO, 14 days), 143; in assay [2] (ERβKO, 21 days), 145; in assay [2] (ERβKO, time 0) it was 126; in assay [2] (WT, 7 days), 121; in assay [2] (WT, 14 days) it was 124. In addition, the Systolic pressure in assay [2] (WT, 21 days) amounted to 131; in assay [2] (WT, time 0), 123. In assay [2] (wildtype mice, 21 days), the “Ang II induced hypertension” value is “largely prevented”. For the same compound, the “Reduction in ROS formation” value in the assay with ARPE-19 cells was “approximately 30%”. For the same compound, the Ventricular hydroxyproline content entry in assay [3] (WT mice, not ERβKO) was “significantly inhibited the hydroxyproline content”. For the same compound, the “Ang II induced cardiac fibrosis (interstitial collagen)” value in assay [3] (only in WT mice) is “significantly inhibited fibrosis”. At ER-β, the “ER-β RLU/RenRLU” value was found to be 0.48 RLU/RenRLU. Also, the “Ang II induced increase in heart size and total heart weight” value in assay [4] is “prevented the increased size”. For the same compound, the “Ang II induced left ventricular hypertrophy (LVW/BW)” value in assay [4] (wildtype but not ERβKO mice) is recorded as “largely prevented”.

For the compound `CC(C)c1onc(-c2c(Cl)cccc2Cl)c1COc1ccc(/C=C/c2cccc(C(=O)O)c2)c(Cl)c1` [GW4064, reference compound], in the assay with SHP promoter (transfected with FXR and ER-β), the SHP promoter activity result is “increased its activity significantly”.

Turning to `CCCc1c(-c2ccc(O)cc2)nn(-c2ccc(O)cc2)c1-c1ccc(O)cc1` [PPT, 1,3,5-tris(4-hydroxyphenyl)-4-propyl-1H-pyrazole, reference compound], in the assay with SHP promoter (transfected with FXR and ER-α), the SHP promoter activity entry is recorded as “increased SHP activity”.

The values are drawn from patent US9604931B2, “Nuclear receptor binding agents” (GTx, Inc., priority 2007, dated 2017).
